Usually Tm stands for the temperature at the midpoint of the melting transition. As usually defined, the ΔTm is the change in melting temperature against a reference sample.

Common to all, as to type: nucleic-acid assay
Experiment [1] has as its system Nucleic Acid. Nature of the experiment: DNA hybridizing activity at single stranded DNA assessed as thermal stability of duplexes formed between compound and complimentary ssDNA by measuring melting temperature at 4 uM in presence of 10 mM pH 7.2 sodium phosphate buffer containing 100 mM NaCl by UV based melting experiment.
Experiment [2] deals with Nucleic Acid. Kind of experiment: DNA hybridizing activity at single stranded DNA assessed as thermal stability of duplexes formed between compound and complimentary ssDNA by measuring change in melting temperature at 4 uM in presence of 10 mM pH 7.2 sodium phosphate buffer containing 100 mM NaCl by UV based melting experiment relative to untreated control.
Experiment [3] deals with Nucleic Acid. Kind of experiment: DNA hybridizing activity at single stranded RNA assessed as thermal stability of duplexes formed between compound and complimentary ssRNA by measuring melting temperature at 4 uM in presence of 10 mM pH 7.2 sodium phosphate buffer containing 100 mM NaCl by UV based melting experiment.
The test system of experiment [4] is Nucleic Acid. Kind of experiment: DNA hybridizing activity at single stranded RNA assessed as thermal stability of duplexes formed between compound and complimentary ssRNA by measuring change in melting temperature at 4 uM in presence of 10 mM pH 7.2 sodium phosphate buffer containing 100 mM NaCl by UV based melting experiment relative to untreated control.
The subject of experiment [5] is Nucleic Acid. Nature of the experiment: DNA hybridizing activity at 22 bp double stranded DNA assessed as thermal stability of duplexes formed between compound and complimentary dsDNA by measuring melting temperature at 1.5 uM in presence of 7 mM pH 5.5 sodium phosphate buffer containing 140 mM K, 10 mM MgCl2 by UV based melting experiment.
Experiment [6] has as its system Nucleic Acid. Kind of experiment: DNA hybridizing activity at 22 bp double stranded DNA assessed as thermal stability of duplexes formed between compound and complimentary dsDNA by measuring change in melting temperature at 1.5 uM in presence of 7 mM pH 5.5 sodium phosphate buffer containing 140 mM K, 10 mM MgCl2 by UV based melting experiment.

As to `Cc1cn([C@H]2C[C@H](OP(=O)(O)OC[C@H]3O[C@@H](n4cc(C)c(=O)[nH]c4=O)C[C@@H]3OP(=O)(O)OC[C@H]3O[C@@H](n4cc(C)c(=O)[nH]c4=O)C[C@@H]3O[P@@](=O)(OC[C@H]3O[C@@H](n4cc(C)c(=O)[nH]c4=O)C[C@@H]3OP(=O)(O)OC[C@H]3O[C@@H](n4cc(C)c(=O)[nH]c4=O)C[C@@H]3OP(=O)(O)OC[C@H]3O[C@@H](n4cc(C)c(=O)[nH]c4=O)C[C@@H]3OP(=O)(O)OC[C@H]3O[C@@H](n4ccc(N)nc4=O)C[C@@H]3OP(=O)(O)OC[C@H]3O[C@@H](n4ccc(N)nc4=O)C[C@@H]3OP(=O)(O)OC[C@H]3O[C@@H](n4ccc(N)nc4=O)C[C@@H]3OP(=O)(O)O)SCCCCCN)[C@@H](COP(=O)(O)O[C@H]3C[C@H](n4ccc(N)nc4=O)O[C@@H]3COP(=O)(O)O[C@H]3C[C@H](n4ccc(N)nc4=O)O[C@@H]3COP(=O)(O)O[C@H]3C[C@H](n4ccc(N)nc4=O)O[C@@H]3CO)O2)c(=O)[nH]c1=O`, the Tm was determined as 44 °C with Nucleic Acid [1], 44 °C with Nucleic Acid [3] and 27 °C in the experiment with Nucleic Acid [5]. For the same compound, the ΔTm is 2 °C in the experiment on Nucleic Acid [2], -2 °C in the experiment on Nucleic Acid [4] and 2 °C in the experiment on Nucleic Acid [6].

As for `Cc1cn([C@H]2C[C@H](OP(=O)(O)OC[C@H]3O[C@@H](n4cc(C)c(=O)[nH]c4=O)C[C@@H]3OP(=O)(O)OC[C@H]3O[C@@H](n4cc(C)c(=O)[nH]c4=O)C[C@@H]3O[P@@](=O)(OC[C@H]3O[C@@H](n4cc(C)c(=O)[nH]c4=O)C[C@@H]3OP(=O)(O)OC[C@H]3O[C@@H](n4cc(C)c(=O)[nH]c4=O)C[C@@H]3OP(=O)(O)OC[C@H]3O[C@@H](n4cc(C)c(=O)[nH]c4=O)C[C@@H]3OP(=O)(O)OC[C@H]3O[C@@H](n4ccc(N)nc4=O)C[C@@H]3OP(=O)(O)OC[C@H]3O[C@@H](n4ccc(N)nc4=O)C[C@@H]3OP(=O)(O)OC[C@H]3O[C@@H](n4ccc(N)nc4=O)C[C@@H]3OP(=O)(O)O)SCCCN)[C@@H](COP(=O)(O)O[C@H]3C[C@H](n4ccc(N)nc4=O)O[C@@H]3COP(=O)(O)O[C@H]3C[C@H](n4ccc(N)nc4=O)O[C@@H]3COP(=O)(O)O[C@H]3C[C@H](n4ccc(N)nc4=O)O[C@@H]3CO)O2)c(=O)[nH]c1=O`, the Tm in the experiment with Nucleic Acid [1] turned out to be 43 °C; in the experiment with Nucleic Acid [3], 46 °C; in the experiment with Nucleic Acid [5], 29 °C. The ΔTm with Nucleic Acid [2] worked out at 1 °C; in the experiment on Nucleic Acid [4] it was 0 °C; in the experiment with Nucleic Acid [6], 4 °C.

On to `Cc1cn([C@H]2C[C@H](OP(=O)(O)OC[C@H]3O[C@@H](n4cc(C)c(=O)[nH]c4=O)C[C@@H]3OP(=O)(O)OC[C@H]3O[C@@H](n4cc(C)c(=O)[nH]c4=O)C[C@@H]3O[P@](=O)(OC[C@H]3O[C@@H](n4cc(C)c(=O)[nH]c4=O)C[C@@H]3OP(=O)(O)OC[C@H]3O[C@@H](n4cc(C)c(=O)[nH]c4=O)C[C@@H]3OP(=O)(O)OC[C@H]3O[C@@H](n4cc(C)c(=O)[nH]c4=O)C[C@@H]3OP(=O)(O)OC[C@H]3O[C@@H](n4ccc(N)nc4=O)C[C@@H]3OP(=O)(O)OC[C@H]3O[C@@H](n4ccc(N)nc4=O)C[C@@H]3OP(=O)(O)OC[C@H]3O[C@@H](n4ccc(N)nc4=O)C[C@@H]3OP(=O)(O)O)SCCNCCCN)[C@@H](COP(=O)(O)O[C@H]3C[C@H](n4ccc(N)nc4=O)O[C@@H]3COP(=O)(O)O[C@H]3C[C@H](n4ccc(N)nc4=O)O[C@@H]3COP(=O)(O)O[C@H]3C[C@H](n4ccc(N)nc4=O)O[C@@H]3CO)O2)c(=O)[nH]c1=O`, for which the values for the Tm in the experiment with Nucleic Acid [1], with Nucleic Acid [3] and in the experiment on Nucleic Acid [5] were 40 °C, 44 °C and 25 °C, respectively. The results for the ΔTm with Nucleic Acid [2], in the experiment on Nucleic Acid [4] and in the experiment on Nucleic Acid [6] were -2 °C, -2 °C and -1 °C, respectively.

`Cc1cn([C@H]2C[C@H](OP(=O)(O)OC[C@H]3O[C@@H](n4cc(C)c(=O)[nH]c4=O)C[C@@H]3OP(=O)(O)OC[C@H]3O[C@@H](n4cc(C)c(=O)[nH]c4=O)C[C@@H]3O[P@@](=O)(OC[C@H]3O[C@@H](n4cc(C)c(=O)[nH]c4=O)C[C@@H]3OP(=O)(O)OC[C@H]3O[C@@H](n4cc(C)c(=O)[nH]c4=O)C[C@@H]3OP(=O)(O)OC[C@H]3O[C@@H](n4cc(C)c(=O)[nH]c4=O)C[C@@H]3OP(=O)(O)OC[C@H]3O[C@@H](n4ccc(N)nc4=O)C[C@@H]3OP(=O)(O)OC[C@H]3O[C@@H](n4ccc(N)nc4=O)C[C@@H]3OP(=O)(O)OC[C@H]3O[C@@H](n4ccc(N)nc4=O)C[C@@H]3OP(=O)(O)O)SCCN3CCNCC3)[C@@H](COP(=O)(O)O[C@H]3C[C@H](n4ccc(N)nc4=O)O[C@@H]3COP(=O)(O)O[C@H]3C[C@H](n4ccc(N)nc4=O)O[C@@H]3COP(=O)(O)O[C@H]3C[C@H](n4ccc(N)nc4=O)O[C@@H]3CO)O2)c(=O)[nH]c1=O`: the values for the Tm with Nucleic Acid [1], with Nucleic Acid [3] and in the experiment with Nucleic Acid [5] were 45 °C, 46 °C and 28 °C, respectively. Moreover, the ΔTm turned out to be 3 °C in the experiment with Nucleic Acid [2], 0 °C with Nucleic Acid [4] and 3 °C in the experiment on Nucleic Acid [6].

Turning to `Cc1cn([C@H]2C[C@H](OP(=O)(O)OC[C@H]3O[C@@H](n4cc(C)c(=O)[nH]c4=O)C[C@@H]3OP(=O)(O)OC[C@H]3O[C@@H](n4cc(C)c(=O)[nH]c4=O)C[C@@H]3O[P@@](=O)(OC[C@H]3O[C@@H](n4cc(C)c(=O)[nH]c4=O)C[C@@H]3OP(=O)(O)OC[C@H]3O[C@@H](n4cc(C)c(=O)[nH]c4=O)C[C@@H]3OP(=O)(O)OC[C@H]3O[C@@H](n4cc(C)c(=O)[nH]c4=O)C[C@@H]3OP(=O)(O)OC[C@H]3O[C@@H](n4ccc(N)nc4=O)C[C@@H]3OP(=O)(O)OC[C@H]3O[C@@H](n4ccc(N)nc4=O)C[C@@H]3OP(=O)(O)OC[C@H]3O[C@@H](n4ccc(N)nc4=O)C[C@@H]3OP(=O)(O)O)SCCNCCN)[C@@H](COP(=O)(O)O[C@H]3C[C@H](n4ccc(N)nc4=O)O[C@@H]3COP(=O)(O)O[C@H]3C[C@H](n4ccc(N)nc4=O)O[C@@H]3COP(=O)(O)O[C@H]3C[C@H](n4ccc(N)nc4=O)O[C@@H]3CO)O2)c(=O)[nH]c1=O`, the Tm with Nucleic Acid [1] was 45 °C; in the experiment with Nucleic Acid [3] it was 45 °C; with Nucleic Acid [5], 30 °C. Further, the figures for the thermal shift (ΔTm) in the experiment with Nucleic Acid [2], in the experiment on Nucleic Acid [4] and in the experiment on Nucleic Acid [6] were 3 °C, -1 °C and 5 °C, respectively.

For the compound `Cc1cn([C@H]2C[C@H](OP(=O)(O)OC[C@H]3O[C@@H](n4cc(C)c(=O)[nH]c4=O)C[C@@H]3OP(=O)(O)OC[C@H]3O[C@@H](n4cc(C)c(=O)[nH]c4=O)C[C@@H]3O[P@@](=O)(S)OC[C@H]3O[C@@H](n4cc(C)c(=O)[nH]c4=O)C[C@@H]3OP(=O)(O)OC[C@H]3O[C@@H](n4cc(C)c(=O)[nH]c4=O)C[C@@H]3OP(=O)(O)OC[C@H]3O[C@@H](n4cc(C)c(=O)[nH]c4=O)C[C@@H]3OP(=O)(O)OC[C@H]3O[C@@H](n4ccc(N)nc4=O)C[C@@H]3OP(=O)(O)OC[C@H]3O[C@@H](n4ccc(N)nc4=O)C[C@@H]3OP(=O)(O)OC[C@H]3O[C@@H](n4ccc(N)nc4=O)C[C@@H]3OP(=O)(O)O)[C@@H](COP(=O)(O)O[C@H]3C[C@H](n4ccc(N)nc4=O)O[C@@H]3COP(=O)(O)O[C@H]3C[C@H](n4ccc(N)nc4=O)O[C@@H]3COP(=O)(O)O[C@H]3C[C@H](n4ccc(N)nc4=O)O[C@@H]3CO)O2)c(=O)[nH]c1=O`, the Tm with Nucleic Acid [1] was found to be 42 °C; with Nucleic Acid [3], 46 °C; with Nucleic Acid [5] it was 26 °C.

Consider `Cc1cn([C@H]2C[C@H](OP(=O)(O)O)[C@@H](COP(=O)(O)O[C@H]3C[C@H](n4ccc(N)nc4=O)O[C@@H]3COP(=O)(O)O[C@H]3C[C@H](n4ccc(N)nc4=O)O[C@@H]3COP(=O)(O)O[C@H]3C[C@H](n4cc(C)c(=O)[nH]c4=O)O[C@@H]3COP(=O)(O)O[C@H]3C[C@H](n4cc(C)c(=O)[nH]c4=O)O[C@@H]3COP(=O)(O)O[C@H]3C[C@H](n4cc(C)c(=O)[nH]c4=O)O[C@@H]3COP(=O)(O)O[C@H]3C[C@H](n4cc(C)c(=O)[nH]c4=O)O[C@@H]3COP(=O)(O)O[C@H]3C[C@H](n4cc(C)c(=O)[nH]c4=O)O[C@@H]3COP(=O)(O)O[C@H]3C[C@H](n4cc(C)c(=O)[nH]c4=O)O[C@@H]3COP(=O)(O)O[C@H]3C[C@H](n4ccc(N)nc4=O)O[C@@H]3COP(=O)(O)O[C@H]3C[C@H](n4ccc(N)nc4=O)O[C@@H]3COP(=O)(O)O[C@H]3C[C@H](n4ccc(N)nc4=O)O[C@@H]3CO)O2)c(=O)[nH]c1=O`, for which the melting temperature (Tm) with Nucleic Acid [1] worked out at 44 °C; in the experiment on Nucleic Acid [3] it was 48 °C; with Nucleic Acid [5], 29 °C.

In the case of `Cc1cn([C@H]2C[C@H](OP(=O)(O)OC[C@H]3O[C@@H](n4cc(C)c(=O)[nH]c4=O)C[C@@H]3OP(=O)(O)OC[C@H]3O[C@@H](n4cc(C)c(=O)[nH]c4=O)C[C@@H]3O[P@](=O)(S)OC[C@H]3O[C@@H](n4cc(C)c(=O)[nH]c4=O)C[C@@H]3OP(=O)(O)OC[C@H]3O[C@@H](n4cc(C)c(=O)[nH]c4=O)C[C@@H]3OP(=O)(O)OC[C@H]3O[C@@H](n4cc(C)c(=O)[nH]c4=O)C[C@@H]3OP(=O)(O)OC[C@H]3O[C@@H](n4ccc(N)nc4=O)C[C@@H]3OP(=O)(O)OC[C@H]3O[C@@H](n4ccc(N)nc4=O)C[C@@H]3OP(=O)(O)OC[C@H]3O[C@@H](n4ccc(N)nc4=O)C[C@@H]3OP(=O)(O)O)[C@@H](COP(=O)(O)O[C@H]3C[C@H](n4ccc(N)nc4=O)O[C@@H]3COP(=O)(O)O[C@H]3C[C@H](n4ccc(N)nc4=O)O[C@@H]3COP(=O)(O)O[C@H]3C[C@H](n4ccc(N)nc4=O)O[C@@H]3CO)O2)c(=O)[nH]c1=O`, the Tm was found to be 42 °C with Nucleic Acid [1], 46 °C in the experiment on Nucleic Acid [3] and 25 °C in the experiment with Nucleic Acid [5].
